Experiments:
[1] = tested on: SH-SY5Y; assay: Percent increase against SH-SY5Y human neuroblastoma cell viability induced by hydrogen peroxide at 10 uM concentration; assay type: functional
[2] = tested on: SH-SY5Y; assay: Percent increase against SH-SY5Y human neuroblastoma cell viability induced by hydrogen peroxide at 50 uM concentration; assay type: functional
[3] = Free radical scavenging activity of DPPH was determined
[4] = tested on: SH-SY5Y; assay: Percent increase against SH-SY5Y human neuroblastoma cell viability induced by hydrogen peroxide at 2 uM concentration; assay type: functional

SMILES	IC50 [3] [µM]	Increase [1] [%]	Increase [2] [%]	Increase [4] [%]
O=c1cc(-c2ccc(O)cc2)oc2cc(O)cc(O)c12 [APIGENIN]	> 100	52.4	63.7	24.6
O=C1O[C@H]([C@@H](O)CO)C(O)=C1O [ASCORBIC ACID]	26.5			
O=c1cc(-c2ccc(O)c(O)c2)oc2cc(O)cc(O)c12 [LUTEOLIN]	10.4	84	77.5	76.4

Now from value to compound, other results behind:

IC50 [3] [µM]	SMILES	Increase [1] [%]	Increase [2] [%]	Increase [4] [%]
> 100	O=c1cc(-c2ccccc2)oc2cc(O)cc(O)c12 [CHRYSIN]			
> 100	COc1c(O)cc(O)c2c(=O)cc(-c3ccccc3)oc12 [WOGONIN]			

Reference: ChEMBL document CHEMBL1147567, “Neuroprotective effects of flavones on hydrogen peroxide-induced apoptosis in SH-SY5Y neuroblostoma cells” (Bioorg Med Chem Lett, 2004)
